The numbers were not newly measured in patent US6751290B2, “Radiographic assessment of tissue after exposure to a compound” (Veritas Pharmaceuticals, Inc., priority 1998, dated 2004), which cites them from elsewhere.

SMILES strings stand for the structures.

One may read the logP as the decadic logarithm of the partition coefficient of the neutral form, usually between octanol and water.

The conditions of the data set: experimental logP values, commonly used non-ionic radiographic contrast agents (Hansch et al. 1995).
Regarding `COCC(=O)Nc1c(I)c(C(=O)NCC(O)CO)c(I)c(C(=O)N(C)CC(O)CO)c1I` (stereo not drawn) [Iopromide], the lipophilicity (logP) is reported as −2.05.
Consider `CC(=O)N(CC(O)CO)c1c(I)c(C(=O)NCC(O)CO)c(I)c(C(=O)NCC(O)CO)c1I` (stereo not drawn) [Iohexol], for which the logP was −3.05.
Turning to `CC(=O)Nc1c(I)c(C(=O)N[C@H]2C(O)O[C@H](CO)[C@@H](O)[C@@H]2O)c(I)c(N(C)C(C)=O)c1I` (stereo partly drawn) [Metrizamide], the lipophilicity (logP) was −1.86.
